For assay [1], the target named is T1, HO-1 (rat spleen) (Rattus norvegicus, UniProt P06762).
T1 construct: Spleen microsomes were used as a source of HO-1; from tissue; host or cells: spleen microsomal fraction of adult male Sprague-Dawley rats
T1 sequence (P06762 1-289): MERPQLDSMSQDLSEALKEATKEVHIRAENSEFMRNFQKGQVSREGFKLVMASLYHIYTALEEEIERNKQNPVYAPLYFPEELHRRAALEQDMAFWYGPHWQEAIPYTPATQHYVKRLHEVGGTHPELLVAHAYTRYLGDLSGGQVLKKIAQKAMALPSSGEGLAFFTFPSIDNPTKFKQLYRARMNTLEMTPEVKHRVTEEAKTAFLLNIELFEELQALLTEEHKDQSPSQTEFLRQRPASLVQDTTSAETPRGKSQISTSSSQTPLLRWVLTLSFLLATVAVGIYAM
The assay can be described thus: HO enzymatic activity in rat spleen microsomal fraction (CO formed from methemalbumin, gas chromatography). Type of assay: biochemical. Here is the method:
(§1) Incubations for HO activity analysis were done under conditions for which the rate of CO formation (pmol CO×min^−1×mg protein^−1) was linear with respect to time and microsomal protein concentration. Briefly, reaction mixtures (150 μL) consisting of 100 mM phosphate buffer (pH 7.4), 50 μM methemalbumin, and 1 mg/mL protein were pre-incubated with the inhibitors at final concentrations ranging from 0.1-100 μM for 10 minutes at 37° C. Reactions were initiated by adding NADPH at a final concentration of 1 mM and incubations were performed for an additional 15 minutes at 37° C.
(§2) Incubations for HO activity analysis were done under conditions for which the rate of CO formation (pmol CO/mg protein/minute) was linear with respect to time and microsomal protein concentration. Briefly, reaction mixtures (150 μL) consisting of 100 mM phosphate buffer (pH 7.4), 50 μM methemalbumin and 1 mg/mL protein were pre-incubated with the vehicle (ethanol or water in which the inhibitors were dissolved), or inhibitors at final concentrations ranging from 0.1-1000 μM for 10 minutes at 37° C. Reactions were initiated by adding β-NADPH at a final concentration of 1 mM and incubations were carried out for an additional 15 minutes at 37° C. Reactions were stopped by instantly freezing the reaction mixture on pulverized dry ice and CO formation was measured by gas chromatography using a TA 3000R Process Gas Analyzer (Trace Analytical/Ametek, Newark, Del., USA).
(§3) The values on the abscissa represent the decimal logarithm of the inhibitor's concentration (in μM), whereas the values of the activity on the ordinate are expressed as a percentage of the control experiments without inhibitor.
(§4) The IC50 values for the replicate experiments were employed to generate the reported standard deviation value.

Assay [2] has as its target T2, HO-2 (rat brain) (Rattus norvegicus, UniProt P23711).
T2 construct: brain microsomes were used as a source of HO-2; from tissue; host or cells: brain microsomal fraction of adult male Sprague-Dawley rats
T2 sequence (P23711 1-315): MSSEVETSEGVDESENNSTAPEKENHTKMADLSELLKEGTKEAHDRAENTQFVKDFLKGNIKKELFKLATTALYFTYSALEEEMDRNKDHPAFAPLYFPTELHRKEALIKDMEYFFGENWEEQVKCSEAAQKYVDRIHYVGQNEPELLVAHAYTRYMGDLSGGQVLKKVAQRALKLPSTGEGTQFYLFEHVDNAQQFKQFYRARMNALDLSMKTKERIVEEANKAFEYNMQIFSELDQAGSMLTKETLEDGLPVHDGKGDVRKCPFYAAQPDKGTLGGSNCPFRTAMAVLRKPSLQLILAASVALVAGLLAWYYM
The assay can be described thus: HO enzymatic activity in rat brain microsomal fraction (CO formed from methemalbumin, gas chromatography). The assay is classed as biochemical. Here is the method:
as §1, §2, §3, §4

Where [3] appears, read: rat spleen microsomes, average ± standard deviation of replicate experiments, read-out: IC50 HO-1 (rat spleen)/μM.
The mark [4] stands for this setting: rat brain microsomes, average ± standard deviation of replicate experiments, read-out: IC50 HO-2 (rat brain)/μM.

The text below walks through data of patent US20140155445A1, “Compounds and Methods for Treating Cancer and Diseases of the Central Nervous System” (Osta Biotechnologies Inc., priority 2007, published 2014).

The structures appear in SMILES notation. Counter-ions that a name gives are not always drawn. Like-named read-outs stand apart in the source and are kept apart here.

Regarding `O=C(CCc1ccccc1)Cn1nc(Br)nc1Br` [1-(3,5-Dibromo-[1,2,4]triazol-1-yl)-4-phenyl-butan-2-one], the IC50 in assay [1] (setting [3]) and in assay [2] (setting [4]) was above 100 µM each time.
In the case of `Brc1ccc(CNCc2cccnc2)cc1`, the IC50 in assay [1] (setting [3]) and in assay [2] (setting [4]) was above 100 µM throughout.
Regarding `Clc1ccc(CCC2(Cn3ccnc3)OCCO2)cc1` [2-[2-(4-chlorophenyl)ethyl]-2-[(1H-imidazol-1-yl)methyl]-1,3-dioxolane hydrochloride], the IC50 was 4 ± 2 µM in assay [1] (setting [3]) and above 100 µM in assay [2] (setting [4]).
For `Clc1ccc(CC[C@@]2(Cn3ccnc3)OC[C@@H](CSc3ccc(Br)cc3)O2)cc1` [(2R,4S)-2-[2-(4-chlorophenyl)ethyl]-2-[(1H-imidazol-1-yl)methyl]-4-[{(4-bromophenyl)thio}meth-yl]-1,3-dioxolane hydrochloride] the same measures were 2.1 ± 0.9 µM and 2.4 ± 0.1 µM.
For `c1ccc(CCC2(Cn3ccnc3)OCCO2)cc1` [2-[2-phenylethyl]-2-[(1H-imidazol-1-yl)methyl]-1,3-dioxolane hydrochloride] the same measures were 0.7 ± 0.4 µM and above 100 µM.
In the case of `N#Cc1ccc(OCC2CO[C@@](CCc3ccc(Cl)cc3)(Cn3ccnc3)O2)cc1` (stereo in doubt) [(2R,4S)-4-{2-[2-(4-chlorophenyl)ethyl]-2-imidazol-1-ylmethyl-[1,3]dioxolan-4-ylmethoxy}-benzonitrile hydrochloride], the figures for the IC50 in assay [1] (setting [3]) and in assay [2] (setting [4]) were 0.67 ± 0.02 µM and 1.7 ± 0.2 µM, respectively.
The like results for `c1ccc(CSCCn2ccnc2)cc1` [1-(2-benzylsulfanyl-ethyl)-1H-imidazole] were, in that order, 4 ± 1 µM and above 10 µM.
Regarding `O=C(CCc1ccccc1)Cn1nnnc1-c1ccccc1` [4-Phenyl-1-(5-phenyl-tetrazol-1-yl)-butan-2-one], the IC50 in assay [1] (setting [3]) and in assay [2] (setting [4]) was above 100 µM in each case.
On to `Clc1ccc(CCCCn2ccnc2)cc1` [4-(4-chlorophenyl)-1-(1H-imidazol-1-yl)butane hydrochloride], for which the values for the IC50 in assay [1] (setting [3]) and in assay [2] (setting [4]) were 0.47 ± 0.05 µM and 4 ± 2 µM, respectively.
For `CS(=O)(=O)c1nnnn1CC(=O)CCc1ccccc1` [1-(5-Methanesulfonyl-tetrazol-1-yl)-4-phenyl-butan-2-one] the same measures were above 100 µM and above 100 µM.
Turning to `O/N=C(\Cn1ccnc1)c1ccc(Cl)cc1` [1-(4-chloro-phenyl)-2-imidazol-1-yl-ethanone oxime], the IC50 is 46 ± 8 µM in assay [1] (setting [3]) and above 100 µM in assay [2] (setting [4]).
For `CCOC(=O)N1CCC(Nc2nc3ccccc3[nH]2)CC1` the same measures were above 100 µM and above 100 µM.
With `Brc1ccc(C2(Cn3ccnc3)OCCO2)cc1` [1-[2-(4-bromo-phenyl)-[1,3]dioxolan-2-ylmethyl]-1H-imidazole hydrochloride], the IC50 in assay [1] (setting [3]) was 12 ± 2 µM; in assay [2] (setting [4]) it was above 100 µM.
In the case of `O=C(CCc1ccccc1)Cn1cnc(-c2ccccc2)n1` [4-Phenyl-1-(3-phenyl-[1,2,4]triazol-1-yl)-butan-2-one], the IC50 in assay [1] (setting [3]) is 9 ± 2 µM; in assay [2] (setting [4]), 90 ± 33 µM.
Regarding `O=C(CCc1ccccc1)CCn1ccnc1` [1-imidazol-1-yl-5-phenyl-pentan-3-one hydrochloride], the figures for the IC50 in assay [1] (setting [3]) and in assay [2] (setting [4]) were 28 ± 6 µM and 114 ± 56 µM, respectively.
As for `CC(C)(C)c1ccc(CCC(=O)Cn2ccnc2)cc1` [4-(4-tert-Butyl-phenyl)-1-(1H-imidazol-1-yl)-butan-2-one hydrochloride], the IC50 in assay [1] (setting [3]) is 0.2 ± 0.03 µM; in assay [2] (setting [4]), 0.9 ± 0.2 µM.
The like results for `O=C(CCc1ccccc1)Cn1nc2ccccc2n1` [1-Benzotriazol-2-yl-4-phenyl-butan-2-one] were, in that order, above 100 µM and above 100 µM.
For `c1ccc2cc(C3(Cn4ccnc4)OCCO3)ccc2c1` [1-(2-naphthalen-2-yl-[1,3]dioxolan-2-ylmethyl)-1H-imidazole hydrochloride] the same measures were 2.63 ± 0.06 µM and above 100 µM.
For `O=C(Cn1ccnc1)c1ccc(OCc2ccccc2)cc1` [1-(4-Benzyloxy-phenyl)-2-(1H-imidazol-1-yl)-ethanone] the same measures were 11 ± 3 µM and above 100 µM.
For the compound `O=C(Cn1cncn1)c1ccc(-c2ccccc2)cc1` [1-Biphenyl-4-yl-2-[1,2,4]triazol-1-yl-ethanone], the IC50 in assay [1] (setting [3]) worked out at 0.74 ± 0.05 µM; in assay [2] (setting [4]) it was 7 ± 4 µM.
For `O=C(CCc1ccc(O)cc1)Cn1ccnc1` [4-(4-Hydroxyphenyl)-1-(1H-imidazol-1-yl)butan-2-one hydrochloride] the same measures were above 100 µM and above 100 µM.
For `c1ccc2[nH]cnc2c1` [Benzimidazole, reference compound] the same measures were above 100 µM and above 100 µM.
For `ClC[C@@H]1CO[C@@](CCc2ccc(Cl)cc2)(Cn2ccnc2)O1` [(2R,4S)-1-{4-chloromethyl-2-[2-(4-chloro-phenyl)-ethyl]-[1,3]dioxolan-2-ylmethyl}-1H-imidazole hydrochloride] the same measures were 3.5 ± 0.1 µM and 122 ± 30 µM.
Turning to `O=C(Cn1ccnc1)c1ccc(F)cc1` [1-(4-fluoro-phenyl)-2-imidazol-1-yl-ethanone hydrochloride], the IC50 was 2.1 ± 0.1 µM in assay [1] (setting [3]) and 35 ± 3 µM in assay [2] (setting [4]).
In the case of `Cc1ccc(S(=O)(=O)OC[C@@H]2CO[C@@](CCc3ccc(Cl)cc3)(Cn3ccnc3)O2)cc1` [(2R,4S)-2-[2-(4-chlorophenyl)ethyl]-2-[(1H-imidazol-1-yl)methyl]-4-[(p-toluenesulfonyloxy)meth-yl]-1,3-dioxolane], the IC50 in assay [1] worked out at 6 ± 2 µM; in assay [2] it was 3 ± 1 µM.
`Clc1ccc(CC[C@@]2(Cn3ccnc3)OC[C@@H](CSc3ccc4ccccc4c3)O2)cc1` [(2R,4S)-1-[2-[2-(4-chloro-phenyl)-ethyl]-4-(naphthalen-2-ylsulfanylmethyl)-[1,3]dioxolan-2-ylmethyl]-1H-imidazole hydrochloride]: the IC50 turned out to be 0.9 ± 0.1 µM in assay [1] (setting [3]) and 30 ± 4 µM in assay [2] (setting [4]).
For `c1ccc(-n2ccnc2)cc1` [1-Phenyl-1H-imidazole hydrochloride] the same measures were above 100 µM and above 100 µM.
The like results for `OC(CCc1ccccc1)Cn1cnc(-c2ccccc2)c1-c1ccccc1` (racemic) [(±)-1-(4,5-diphenyl-imidazol-1-yl)-4-phenyl-butan-2-ol] were, in that order, above 100 µM and above 100 µM.
As to `COC(=O)Nc1nc2ccc(C(=O)c3cccs3)cc2[nH]1` [Nocodazole, reference compound], the IC50 in assay [1] (setting [3]) and in assay [2] (setting [4]) was above 100 µM each time.
Turning to `Clc1ccc(/C(Cn2ccnc2)=N/OCc2ccc(Br)cc2)cc1` [1-(4-chloro-phenyl)-2-imidazol-1-yl-ethanone O-(4-bromo-benzyl)-oxime hydrochloride], the IC50 came out at 8.3 ± 0.9 µM in assay [1] (setting [3]) and 51 ± 26 µM in assay [2] (setting [4]).
For `Clc1ccc(CC[C@@]2(Cn3ccnc3)OC[C@@H](CSc3ccncc3)O2)cc1` [(2R,4S)-2-[2-(4-chlorophenyl)ethyl]-2-[(1H-imidazol-1-yl)methyl]-4-[{(4-pyridinyl)thio}methyl]-1,3-dioxolane dihydrochloride] the same measures were 25 ± 5 µM and 69 ± 8 µM.
